Series [1] relates to Mus musculus. As to the kind of experiment: Antiinflammatory activity in MSU-induced acute gout arthritis in wild type male C57BL/6J mouse model assessed as decrease in paw inflammation at 10 mg/kg, ip measured after 24 hrs relative to control. The series is classed as functional. Set-up: scale not given: the % may be the effect or the level left.
Series [2] concerns Mus musculus. As to the kind of experiment: Antiinflammatory activity in MSU-induced acute gout arthritis in NLRP3 knockout male C57BL/6J mouse model assessed as reduction in paw inflammation at 3 to 10 mg/kg, ip measured after 24 hrs relative to control. It counts as functional. Details: scale not given: the % may be the effect or the level left. The settings on record: dose 3-10 mg/kg.

The test system of series [3] is J774.A1. As to the kind of experiment: Cytotoxicity against mouse J774.A1 cells assessed as reduction in cell viability at 10 uM measured after 24 hrs by MTT assay relative to control. It counts as toxicity, cell-based. The settings on record: j774.a1, 24 h. For orientation: Tetrazolium assays rely on reduction of a dye to a coloured formazan, in cell work by metabolically active cells.

Series [4] deals with NACHT, LRR and PYD domains-containing protein 3 (Mus musculus) (UniProt Q8R4B8). The series can be described thus: Inhibition of NLRP3 inflammasome activation in LPS-primed mouse BMDM cells assessed as inhibition of caspase-1 cleavage in supernatant at 1 uM pretreated for 15 mins followed by ATP addition for 30 mins by Western blot analysis. The series is classed as cell-based. To be noted: time 45.0 min. A general note: A western blot detects proteins with antibodies after separation by electrophoresis.
NACHT, LRR and PYD domains-containing protein 3 (Mus musculus), sequence (Q8R4B8 whole entry, the tested form may be a part): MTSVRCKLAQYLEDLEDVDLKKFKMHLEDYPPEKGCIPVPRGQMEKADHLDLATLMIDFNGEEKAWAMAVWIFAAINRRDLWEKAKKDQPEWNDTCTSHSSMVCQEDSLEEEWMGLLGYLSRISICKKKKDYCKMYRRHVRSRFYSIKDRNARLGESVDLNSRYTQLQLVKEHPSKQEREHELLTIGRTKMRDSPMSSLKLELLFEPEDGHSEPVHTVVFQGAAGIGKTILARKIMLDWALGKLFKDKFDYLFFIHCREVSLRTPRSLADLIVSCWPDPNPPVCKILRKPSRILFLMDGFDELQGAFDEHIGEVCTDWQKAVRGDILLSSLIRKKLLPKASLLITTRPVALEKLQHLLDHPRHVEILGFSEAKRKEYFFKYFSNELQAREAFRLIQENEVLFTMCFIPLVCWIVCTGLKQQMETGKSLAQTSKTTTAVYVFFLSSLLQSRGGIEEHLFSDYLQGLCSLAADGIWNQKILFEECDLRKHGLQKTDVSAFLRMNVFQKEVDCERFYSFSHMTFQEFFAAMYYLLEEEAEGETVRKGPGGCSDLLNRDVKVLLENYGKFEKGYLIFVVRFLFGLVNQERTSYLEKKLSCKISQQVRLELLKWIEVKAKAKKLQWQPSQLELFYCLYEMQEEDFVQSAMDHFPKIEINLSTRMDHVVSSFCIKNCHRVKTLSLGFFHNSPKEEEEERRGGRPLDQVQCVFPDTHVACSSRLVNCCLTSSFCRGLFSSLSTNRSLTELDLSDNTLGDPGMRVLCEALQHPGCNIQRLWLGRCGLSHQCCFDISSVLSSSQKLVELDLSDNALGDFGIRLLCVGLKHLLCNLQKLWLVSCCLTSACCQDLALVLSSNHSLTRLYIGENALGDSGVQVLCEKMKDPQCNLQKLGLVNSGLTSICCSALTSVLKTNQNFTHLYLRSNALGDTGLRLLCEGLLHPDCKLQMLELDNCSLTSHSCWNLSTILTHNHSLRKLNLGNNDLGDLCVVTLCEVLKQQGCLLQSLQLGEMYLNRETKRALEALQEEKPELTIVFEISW

Series [5] concerns J774.A1. As to the kind of experiment: Cytotoxicity against mouse J774.A1 cells assessed as reduction in cell viability at 0.01 to 3 uM measured after 24 hrs by MTT assay. The series is classed as toxicity, cell-based. The settings on record: j774.a1, 24 h, dose 0.01-3 µM.
Series [6] deals with Mus musculus. The series can be described thus: Antiinflammatory activity in MSU-induced acute gout arthritis in wild type male C57BL/6J mouse model assessed as decrease in paw inflammation at 3 to 10 mg/kg, ip measured after 24 hrs. The series is classed as functional, organism-based. The settings on record: dose 3-10 mg/kg.
In series [7] the test system is Mus musculus. The series can be described thus: Antiinflammatory activity in MSU-induced acute gout arthritis in wild type female C57BL/6J mouse model assessed as decrease in paw inflammation at 10 mg/kg, ip measured after 24 hrs relative to control. It counts as functional. Details: scale not given: the % may be the effect or the level left.
Series [8] relates to Mus musculus. The series can be described thus: Analgesic activity in MSU-induced mechanical hyperalgesia in wild type C57BL/6J mouse model assessed as decrease in paw withdrawal threshold at 10 mg/kg, ip measured after 24 hrs by von Frey test (Rvb= 72%). The series is classed as functional. Details: scale not given: the % may be the effect or the level left.
Series [9] relates to Mus musculus. As to the kind of experiment: Analgesic activity in MSU-induced mechanical hyperalgesia in wild type C57BL/6J mouse model assessed as decrease in paw withdrawal threshold at 3 mg/kg, ip measured after 24 hrs by von Frey test (Rvb= 72%). The series is classed as functional. Details: scale not given: the % may be the effect or the level left.
For series [10], the target named is NACHT, LRR and PYD domains-containing protein 3 (Mus musculus) (UniProt Q8R4B8). The series can be described thus: Inhibition of NLRP3 inflammasome activation in LPS-primed mouse BMDM cells assessed as inhibition of IL-1beta cleavage in supernatant at 1 uM pretreated for 15 mins followed by ATP addition for 30 mins by Western blot analysis. It counts as cell-based. The settings on record: time 45.0 min.

For series [11] the target is unchanged. As to the kind of experiment: Inhibition of NLRP3 inflammasome oligomerization in LPS-primed mouse BMDM cells assessed as prevention of ASC specks formation at 1 uM pretreated for 15 mins followed by MSU stimulation for 30 mins by DAPI staining based confocal microscopic analysis. The series is classed as cell-based. The settings on record: time 45.0 min.

For series [12], the system named is Mus musculus. The series can be described thus: Antiinflammatory activity in MSU-induced acute gout arthritis in wild type female C57BL/6J mouse model assessed as decrease in paw inflammation at 3 mg/kg, ip measured after 24 hrs relative to control. It counts as functional. Set-up: scale not given: the % may be the effect or the level left.
In series [13] the test system is Mus musculus. As to the kind of experiment: Antiinflammatory activity in MSU-induced acute gout arthritis in NLRP3 knockout female C57BL/6J mouse model assessed as reduction in paw inflammation at 3 to 10 mg/kg, ip measured after 24 hrs relative to control. Details: scale not given: the % may be the effect or the level left. To be noted: dose 3-10 mg/kg. It counts as functional.

The test system of another series is AML12. The series can be described thus: Cytotoxicity against mouse AML12 cells assessed as reduction in cell viability at 0.01 to 30 uM measured after 24 hrs by MTT assay. It counts as toxicity, cell-based. The settings on record: aml12, 24 h, dose 0.01-30 µM.
The test system of series [14] is J774.A1. The series can be described thus: Cytotoxicity against mouse J774.A1 cells assessed as reduction in cell viability at 30 uM measured after 24 hrs by MTT assay relative to control. The series is classed as toxicity, cell-based. To be noted: j774.a1, 24 h.
The target in series [15] is NACHT, LRR and PYD domains-containing protein 3 (Mus musculus, UniProt Q8R4B8). As to the kind of experiment: Inhibition of NLRP3 inflammasome activation in LPS-primed mouse BMDM cells assessed as reduction in ATP induced IL-1beta release pretreated for 15 mins followed by ATP stimulation for 30 mins by ELISA. It counts as cell-based. In general terms: In an ELISA, binding on a coated surface is turned into a signal by an enzyme label.
NACHT, LRR and PYD domains-containing protein 3, sequence (Q8R4B8 whole entry, the tested form may be a part): as above

In series [16] the test system is Mus musculus. The series can be described thus: Antiinflammatory activity in MSU-induced acute gout arthritis in wild type male C57BL/6J mouse model assessed as decrease in paw inflammation at 3 mg/kg, ip measured after 24 hrs relative to control. It counts as functional. Set-up: scale not given: the % may be the effect or the level left.
Series [17] concerns the target NACHT, LRR and PYD domains-containing protein 3 (Mus musculus) (UniProt Q8R4B8). As to the kind of experiment: Inhibition of NLRP3 inflammasome oligomerization in LPS-primed mouse BMDM cells assessed as prevention of ASC specks formation at 1 uM pretreated for 15 mins followed by ATP stimulation for 30 mins by DAPI staining based confocal microscopic analysis. To be noted: time 45.0 min. It counts as cell-based.

Series [18] concerns Mus musculus. As to the kind of experiment: Antiinflammatory activity in MSU-induced acute gout arthritis in wild type male C57BL/6J mouse model assessed as decrease in paw inflammation at 3 mg/kg, ip measured after 24 hrs. The series is classed as functional, organism-based.
Series [19] deals with Mus musculus. The series can be described thus: Antiinflammatory activity in MSU-induced acute gout arthritis in NLRP3 knock out C57BL/6J mouse model assessed as reduction in paw swelling at 3 mg/kg, ip measured after 24 hrs relative to control. It counts as functional. Details: scale not given: the % may be the effect or the level left.

As a reminder, the IC50 is the midpoint of a concentration-inhibition curve.

Activity calls are given as the source filed them.

On to `Cc1cc(C)cc(NC(=O)[N-]S(=O)(=O)c2cc(C(C)(C)O)co2)c1.[Na+]`, for which the Activity in the series on Mus musculus [1] is given as 66%; with Mus musculus [2], 65%; in the series on J774.A1 [3], 20%; with J774.A1 [5] it was “Non-Toxic”; with Mus musculus [7], 52%; with Mus musculus [8], 19%. Further, the Activity with Mus musculus [9] was 47%; with Mus musculus [12], 33%; in the series with Mus musculus [13], 60%; in the series on AML12, “Non-Toxic”; with J774.A1 [14], 20%; in the series on Mus musculus [16] it was 40%. Further, the inhibition result in [4], in [10], in series [11] and in series [17] was “Active” each time. Further, the result with Mus musculus [6] was Active. In addition, in [15], the IC50 came out at 230 pM.
As for `CC(C)(O)c1coc(S(=O)(=O)NC(=O)Nc2c3c(cc4c2CCC4)CCC3)c1`, the Activity with J774.A1 [3] was 30%; with J774.A1 [5], “Non-Toxic”; in the series on Mus musculus [19], 33%; in the series with AML12 it was “Non-Toxic”; with J774.A1 [14], 30%. Moreover, the result in the series with Mus musculus [18] was Active. Also, the IC50 in [15] is 390 pM.
